How the values were obtained:
[1] = even at 100 µM; cited from earlier work
From the text: (§1) This work uncovers how the toxic arginine-containing DPR proteins associated with C9ORF72-ALS/FTD inhibit translation. […] Poly-PR and poly-GR binding to large subunits and assembled 80S ribosomes would compete with the binding of initiator Met-tRNA or elongator tRNAs, and strongly interfere with peptidyl transfer, consistent with transl ...

translation = settings: even at 100 µM; cited from earlier work
From the text: as §1

[2] = target: Oryctolagus cuniculus (rabbit) 80S ribosome (rabbit (Oryctolagus cuniculus)) (UniProt G1SVW5)
[3] = target: Oryctolagus cuniculus (rabbit) 80S ribosome (rabbit (Oryctolagus cuniculus)) (UniProt G1SVW5); remark: listed apart in the source
[4] = target: Escherichia coli 70S ribosome (E. coli)
[5] = system: translation in E. coli cell lysates; assay: Nanoluciferase translation in E. coli cell lysate (NEBExpress); assay type: biochemical; settings: 1 μl of 200 μM stock in 10-μl reaction
Experimental: E. coli cell lysates (NEBExpress, NEB) were used to investigate bacterial translation inhibition by GR20 and PR20. We monitored the translation of an in vitro transcribed mRNA encoding a Shine-Dalgarno sequence preceding the nanoluciferase (Promega) open reading frame. The mRNA was prepared by in vitro transcription of a PCR-template obtained by amplifying the nanoluciferase open reading frame from the plasmid described in reference with the following primers: T7 + SD-forward: […], based on the pet28a+ plasmid and reverse: […]. […] Then 1 μl of water or different concentrations (10-100 μM) of PR20 or GR20 or 200 μM erythromycin were added and the plate was incubated at 37 °C for 5 min inside of an Infinite m1000 pro microplate reader (Tecan). Next, the nanoluciferase mRNA was added to the final concentration of 20 ng/μl in a 10-μl reaction. Translation reactions were incubated at 37 °C for 20 min, luminescence of the samples was continuously measured by the microplate reader to record the time course of protein synthesis. Time progress curves, obtained in the experiments, were processed in MS Excel, and the rate of change of the relative light units between 100 and 200 s was measured, the mean and SEM of three experiments is reported in column graph in Supplementary Fig. 2a.

E. coli 70S ribosomes = assay: Erythromycin competition in the puromycin assay on 70S ribosomes; assay type: biochemical; settings: for fMet-puromycin formed: 20 μM erythromycin and/or 2 μM PR20, 30 nM 70S, quenched at 300 s
Experimental: The assay was performed as described above for the puromycin kinetics, except that the 70S ribosomes were pre-incubated with 22 μM erythromycin for 5 min prior to adding PR20. The stock solution of erythromycin contained 2 mM erythromycin in ethanol, so the control reaction (70S with no erythromycin) and the reactions with erythromycin were prepared to contain the same amount of ethanol (1%). The final concentrations after addition of puromycin were: 30 nM 70S, 66 nM [^35S]-fMet-tRNA^fMet, 1 μM mRNA, 2 μM PR20 (no PR20 in the control reaction), 20 μM erythromycin (or no erythromycin in a control reaction), 50 µM puromycin (in 20 mM Tris-acetate (pH 7.0), 100 mM NH4OAc, 12 mM Mg(OAc)2 and 1% ethanol). Samples were quenched at 300 s when the uninhibited reaction had reached a plateau.

[6] = system: ribosomes on endogenous globin mRNAs in RRL; assay: Polysome profiling of RRL translating endogenous mRNA; assay type: biochemical, rabbit; settings: 4 μM PR20, 4 μM GR20, 1 mM GDPCP; 5 min
Experimental: Polysome profiles were obtained using RRL untreated with nuclease, so that it contained endogenous mRNA. 100 μl reactions containing 50% RRL (Green Hectare) 30 μM hemin (Sigma), 75 mM KCl, 0.5 mM MgCl2, 1 mM ATP, 0.2 mM GTP, 2.1 mg/ml creatine phosphate, 30 μM of L-amino acid mix, 15 mg/ml yeast tRNA, 6 mM BME and, when appropriate, translation inhibitors (4 μM PR20, 4 μM GR20, cycloheximide, 40 μM harringtonine, or 1 mM GDPCP with 1 mM MgCl2) were assembled on ice. To start translation, the reactions were warmed in a heat block at either 30 °C or 37 °C as noted. After 5 min, reactions were terminated by addition of 100 μl of ice-cold Stop Buffer (50 mM Hepes-KOH pH 7.4, 150 mM KOAc, 10 mM Mg(OAc)2, and 200 μg/ml cycloheximide). The stopped reactions were applied to 10–50% sucrose gradients in Gradient Buffer (50 mM Hepes-KOH pH 7.4, 150 mM KOAc, 10 mM Mg(OAc)2, 2 mM DTT, and 100 μg/ml cycloheximide) and spun in an SW-41 rotor (Beckman Coulter) at 197,568xg (avg) for 2 h at 4 °C. Gradients were pumped on a Gradient Station (BioComp Instruments) at a pump rate of 0.29 mm/min and the absorbance at 254 nm was measured by an Econo UV monitor (Biorad) zeroed with 10% sucrose-gradient buffer. The traces were output as CSV files and imported into GraphPad Prism, where the 80S peaks were aligned. Controls were highly reproducible day-to-day. Each experimental condition is shown compared to concurrent, uninhibited control.

[7] = system: ribosomes on endogenous beta-globin mRNA in RRL; assay: Toeprinting of 80S and 4-5-mer polysome fractions on beta-globin mRNA; assay type: biochemical, rabbit; settings: for normalized ratio START to CDS, MEAN: 4-5-mer, primer B, mean of ten 20 bp windows
Experimental: Toeprinting analyses were carried out similarly to those in refs. [51],[74], using 80S and polysome (4–5-some) fractions collected from polysome profiles as described in “Polysome Profiles” except that reactions were doubled in size (200 μL), performed at 37 °C, and were stopped with ice-cold 1xAMV Buffer (50 mM Tris-HCl pH 8.3, 50 mM KCl, 5 mM MgCl2) with 200 μg/ml cycloheximide before being separated on at 10–35% sucrose gradient in 1xAMV buffer with 0.5 mM spermidine and 1 mM DTT. 600 μl of each fraction (80S or 4–5-mer) was supplemented with 10 mM DTT. Then 10 U of AMV reverse transcriptase (Promega), 120 nmol dNTPs, and 120 pmol of a 5'[6-carboxyfluorescein (FAM)]-labeled primer (IDT-DNA) were added. Two primers specific to the endogenous beta-globin mRNA in RRL were used in separate reactions: 5′-(FAM)-GGACTCGAAGAACCTCTG (as in ref. [74]) annealed 136 nucleotides downstream of the AUG or 5′-(FAM)-[…] annealed to the end of the 3'-UTR. Primers were extended at 37 °C for 30 min, and then the reaction were extracted in 1:1 phenol:chloroform, supplemented with 1/10 volume of 3 M sodium acetate pH 5.2, and precipitated with 2.5 volumes of 100% ethanol. Pellets were resuspended in 10 μl of deionized formamide (Applied Biosystems) with 1/20 volume of a 35-500 nucleotide orange-dye labeled DNA size standard (MCLab) and loaded onto a 96-well plate. The samples were sent for fragment analysis by capillary electrophoresis to the UMass Chan Medical School Molecular Biology Core Laboratory using an ABI3730XL DNA Fragment Analyzer with capillaries loaded with POP-7 polymer and with an injection voltage of 12.5 kV. Data collection was performed with GeneMapper software (ABI). Data were exported as.fsa files and were analyzed (aligning to ladder and background correction) in GeneMarker 3.0.1 software (SoftGenetics) running in demo mode. Screen captures of traces were taken and traces were integrated using the “Quantification” feature and manually adjusting sliders to include the desired nucleotide range.

RRRRRRRRRRRR [R12, arginine-rich polypeptide]
cell death [1]: not to cause translation inhibition or cell death
translation inhibition (translation): not to cause translation inhibition

PR20 (poly-proline-arginine, 20 repeats) (peptide)
IC50 of translation of nanoluciferase mRNA in 33% rabbit reticulocyte lysate [2]: 325 nM
IC50 of translation of nanoluciferase mRNA in 50% rabbit reticulocyte lysate [2]: 840 nM
concentration at which inhibition of peptidyl transfer to puromycin begins on purified rabbit 80S ribosomes [3]: 100 nM
apparent inhibition constant (Ki) of peptidyl transfer from [35S]-fMet-tRNAfMet to puromycin on E. coli 70S ribosomes [4]: 44 nM

GRKKRRQRRRPPQ [TAT, arginine-rich polypeptide]
cell death [1]: not to cause translation inhibition or cell death
translation inhibition (translation): not to cause translation inhibition

RRRRNRTRRNRRRVR [FHV, arginine-rich polypeptide]
cell death [1]: not to cause translation inhibition or cell death
translation inhibition (translation): not to cause translation inhibition

CC[C@H]1OC(=O)[C@H](C)[C@@H](O[C@H]2C[C@@](C)(OC)[C@@H](O)[C@H](C)O2)[C@H](C)[C@@H](O[C@@H]2O[C@H](C)C[C@H](N(C)C)[C@H]2O)[C@](C)(O)C[C@@H](C)C(=O)[C@H](C)[C@@H](O)[C@]1(C)O [erythromycin]
effect on nanoluciferase translation in E. coli cell extracts [5]: Inhibition of nanoluciferase translation
fMet-puromycin formed (E. coli 70S ribosomes; first column (replicate 1)): 1468
fMet-puromycin formed (E. coli 70S ribosomes; second column (replicate 2)): 1479
effect of erythromycin preincubation on inhibition by PR20 (E. coli 70S ribosomes; 20 μM erythromycin, 2 μM PR20): prevents the inhibitory action of PR20

PR40 (poly-proline-arginine, 40 repeats) (peptide)
apparent inhibition constant (Ki) of peptidyl transfer to puromycin on purified rabbit 80S ribosomes [3]: < 30 nM
apparent inhibition constant (Ki) of peptidyl transfer to puromycin on E. coli 70S ribosomes [4]: < 30 nM

Nc1nc2c(ncn2[C@@H]2O[C@H](COP(=O)(O)OP(=O)(O)CP(=O)(O)O)[C@@H](O)[C@H]2O)c(=O)[nH]1 [GDPCP]
polysome profile, half-mer peaks [6]: increase in half-mer peaks
site of ribosome accumulation, toe-printing of polysome fractions [7]: accumulate within the open reading frame
Ratio (START to CDS) ([7]; 80S fraction, primer A, Fig. 2f independent repeat): 1.314
Normalized ratio START/ORF ([7]; 80S fraction, primer A, Fig. 2f independent repeat, no inhibitor = 1): 0.4872
normalized ratio START to CDS, MEAN ([7]; Fig. 2g): 0.7887
normalized ratio START to CDS, MEAN ([7]; Fig. 2h independent repeat): 0.4286
